Several values for one entry are separate records, joined by “and”; a condition that tells them apart may be missing. Identical values can stand only once. Like-named read-outs stand apart in the source and are kept apart here. Positions of bridges follow the written chain, without caps; N, C: chain ends. Non-standard residues stand in square brackets, D forms with d. Residues, ends and D or L forms follow the SMILES beside them. *: point of attachment. Ileψ(thiazoline)Cys = CC[C@H](C)[C@H](N)C1=N[C@H](C(=O)*)CS1; dOrn = NCCC[C@@H](N)C(=O)O A value given as a limit tells only on which side of the number the result lay.

This note sets out measurements from paper PMC8445441, “Elucidating the mechanism by which synthetic helper peptides sensitize Pseudomonas aeruginosa to multiple antibiotics” (PLoS Pathogens, 2021).

The test system of one experiment is P. aeruginosa PAO1. The experiment is described as follows: microbe, parasite or virus in culture. The conditions noted are these: for FICI / MICac: the MIC for the antibiotic in the combination / MICa: the MIC of antibiotics: S3 Table, PAO1; for MICa: the MIC of antibiotics: antibiotic alone. The protocol:
(§1) The MIC tests were performed in triplicate using broth microdilution in accordance with Clinical and Laboratory Standards Institute (CLSI) recommendations (http://iacld.ir/DL/public/CLSI-2018-M100-S28.pdf). Briefly, drugs were two-fold diluted in MHB and mixed with an equal volume of bacterial suspensions containing approximately 1 × 10^6 CFU/mL in 96-well microliter plate. After 18 h incubation at 37 °C, the MIC values were defined as the lowest concentrations of antibiotics with no visible growth of bacteria. […] Otherwise, 1/4 MIC of the peptide was used in the combination. […] If needed, membrane compounds PG, PE, PC, CL or LPS, or membrane stabilizers MgCl2 or CaCl2, or efflux pumps inhibitor PAβN were added to the broth medium to clarify the effect of other substances on the synergy between peptide and antibiotics. All the tests were performed in triplicate.
The fractional inhibitory concentration (FIC) indices were calculated using the previously described formula FICI = FICa + FICb = MICac/MICa + MICbc/MICb. The FICI was interpreted according to EUCAST [65] as follows: synergistic, FICI≤0.5; additive, 0.5<FICI≤1; indifferent, 1<FICI<2; antagonistic, FICI ≥2. For the FICI calculations, twice the highest concentration tested was used in the cases where the MIC was not reached.

The subject of experiment [1] is clinical P. aeruginosa isolates. The experiment is described as follows: microbe, parasite or virus in culture. The conditions noted are these: for MIC: Pseudomonas aeruginosa, 18 h; for Antibiotic sensibility (MIC) of clinical P. aeruginosa isolate AUMC-Pa-1: strain AUMC-Pa-1; for Antibiotic sensibility (MIC) of clinical P. aeruginosa isolate AUMC-Pa-2: strain AUMC-Pa-2; for Antibiotic sensibility (MIC) of clinical P. aeruginosa isolate AUMC-Pa-3: strain AUMC-Pa-3; for Antibiotic sensibility (MIC) of clinical P. aeruginosa isolate AUMC-Pa-4: strain AUMC-Pa-4; for Antibiotic sensibility (MIC) of clinical P. aeruginosa isolate AUMC-Pa-5: strain AUMC-Pa-5; for Antibiotic sensibility (MIC) of clinical P. aeruginosa isolate AUMC-Pa-6: strain AUMC-Pa-6; for Antibiotic sensibility (MIC) of clinical P. aeruginosa isolate HM-214: strain HM-214; for Antibiotic sensibility (MIC) of clinical P. aeruginosa isolate NR-31040: strain NR-31040; for Antibiotic sensibility (MIC) of clinical P. aeruginosa isolate NR-31041: strain NR-31041. The protocol:
The bacterial strains, primers and plasmids used in this study are listed in S5 Table. […] Bacteria were cultured in LB medium or cation-adjusted Muller-Hinton broth (CA-MHB) at 37 °C with agitation at 220 rpm. All the antibiotics and chemical compounds used in this study were purchased from Sigma-Aldrich.
as §1

Where [2] appears, read: read-out: Antibiotic sensibility (MIC) of clinical P. aeruginosa isolate AUMC-Pa-1, strain AUMC-Pa-1, antibiotic alone.
Where [3] appears, read: read-out: Antibiotic sensibility (MIC) of clinical P. aeruginosa isolate AUMC-Pa-2, strain AUMC-Pa-2, antibiotic alone.
The mark [4] stands for this setting: read-out: Antibiotic sensibility (MIC) of clinical P. aeruginosa isolate AUMC-Pa-3, strain AUMC-Pa-3, antibiotic alone.
The mark [5] stands for this setting: read-out: Antibiotic sensibility (MIC) of clinical P. aeruginosa isolate AUMC-Pa-4, strain AUMC-Pa-4, antibiotic alone.
Setting [6] is: read-out: Antibiotic sensibility (MIC) of clinical P. aeruginosa isolate AUMC-Pa-5, strain AUMC-Pa-5, antibiotic alone.
Where [7] appears, read: read-out: Antibiotic sensibility (MIC) of clinical P. aeruginosa isolate AUMC-Pa-6, strain AUMC-Pa-6, antibiotic alone.
The mark [8] stands for this setting: read-out: Antibiotic sensibility (MIC) of clinical P. aeruginosa isolate HM-214, strain HM-214, antibiotic alone.
Where [9] appears, read: read-out: Antibiotic sensibility (MIC) of clinical P. aeruginosa isolate NR-31040, strain NR-31040, antibiotic alone.
[10] abbreviates: read-out: Antibiotic sensibility (MIC) of clinical P. aeruginosa isolate NR-31041, strain NR-31041, antibiotic alone.

On to `CNC(C)C1CCC(N)C(OC2C(N)CC(N)C(OC3OCC(C)(O)C(NC)C3O)C2O)O1` (stereo not shown) [Gentamicin], for which the FICI with P. aeruginosa PAO1 (antibiotic + 2 μM D-11) is given as 2.063; with P. aeruginosa PAO1 (antibiotic + 4 μM D-11), 2.125. The “MICac: the MIC for the antibiotic in the combination” value (“MICac: the MIC for the antibiotic” for short) in the experiment on P. aeruginosa PAO1 (with 2 μM D-11) and in the experiment on P. aeruginosa PAO1 (with 4 μM D-11) was 2 µM in each case. Moreover, the “MICa: the MIC of antibiotics” value in the experiment on P. aeruginosa PAO1 is 1 µM. The MIC turned out to be 0.5 µM in experiment [1] (setting [2]); 0.25 µM in experiment [1] (setting [3]); 0.0625 µM in experiment [1] (setting [4]); 0.5 µM in experiment [1] (setting [5]); 0.5 µM in experiment [1] (setting [6]); 2 µM in experiment [1] (setting [7]). The MIC in experiment [1] (setting [8]) stood at 1 µM; in experiment [1] (setting [9]) it was 32 µM; in experiment [1] (setting [10]), 32 µM.

In the case of `CCCCc1ccc(C(=O)O)nc1` [Fusaric Acid], the MIC with P. aeruginosa PAO1 (Pseudomonas aeruginosa, PAO1, 18 h, read-out: MICa: the MIC of antibiotics) was over 128 µM; in experiment [1] (read-out: Antibiotic sensibility (MIC) of clinical P. aeruginosa isolate AUMC-Pa-1), over 128 µM; in experiment [1] (read-out: Antibiotic sensibility (MIC) of clinical P. aeruginosa isolate AUMC-Pa-2), over 128 µM; in experiment [1] (read-out: Antibiotic sensibility (MIC) of clinical P. aeruginosa isolate AUMC-Pa-3), over 128 µM; in experiment [1] (read-out: Antibiotic sensibility (MIC) of clinical P. aeruginosa isolate AUMC-Pa-4) it was over 128 µM; in experiment [1] (read-out: Antibiotic sensibility (MIC) of clinical P. aeruginosa isolate AUMC-Pa-5), over 128 µM. Besides, the MIC in experiment [1] (read-out: Antibiotic sensibility (MIC) of clinical P. aeruginosa isolate AUMC-Pa-6), in experiment [1] (read-out: Antibiotic sensibility (MIC) of clinical P. aeruginosa isolate HM-214), in experiment [1] (read-out: Antibiotic sensibility (MIC) of clinical P. aeruginosa isolate NR-31040) and in experiment [1] (read-out: Antibiotic sensibility (MIC) of clinical P. aeruginosa isolate NR-31041) was over 128 µM each time. Moreover, the FICI in the experiment with P. aeruginosa PAO1 (antibiotic + 2 μM D-11) turned out to be 1.063; in the experiment with P. aeruginosa PAO1 (antibiotic + 4 μM D-11) it was 1.125. Further, the “MICac: the MIC for the antibiotic” value in the experiment with P. aeruginosa PAO1 (with 2 μM D-11) and with P. aeruginosa PAO1 (with 4 μM D-11) was >128/>128 μM each time.

On to `NCC[C@H](O)C(=O)N[C@@H]1C[C@H](N)[C@@H](O[C@H]2O[C@H](CN)[C@@H](O)[C@H](O)[C@H]2O)[C@H](O)[C@H]1O[C@H]1O[C@H](CO)[C@@H](O)[C@H](N)[C@H]1O` [Amikacin], for which the FICI in the experiment with P. aeruginosa PAO1 (antibiotic + 2 μM D-11) came to 1.063; in the experiment with P. aeruginosa PAO1 (antibiotic + 4 μM D-11), 2.125. In addition, the “MICac: the MIC for the antibiotic” value is 1/1 μM with P. aeruginosa PAO1 (with 2 μM D-11) and 2 µM in the experiment with P. aeruginosa PAO1 (with 4 μM D-11). The “MICa: the MIC of antibiotics” value in the experiment with P. aeruginosa PAO1 was 1/1 μM and 1 μM. Besides, the MIC in experiment [1] (setting [2]) worked out at 1 µM; in experiment [1] (setting [3]), 0.25 µM; in experiment [1] (setting [4]), 0.0625 µM; in experiment [1] (setting [5]), 1 µM; in experiment [1] (setting [6]), 1 µM; in experiment [1] (setting [7]), 2 µM. Moreover, the values for the MIC in experiment [1] (setting [8]), in experiment [1] (setting [9]) and in experiment [1] (setting [10]) were 1 µM, 4 µM and 2 µM, respectively.

Take `CC[C@H](C)[C@H](N)C1=N[C@H](C(=O)N[C@@H](CC(C)C)C(=O)N[C@H](CCC(=O)O)C(=O)N[C@H](C(=O)N[C@H]2CCCCNC(=O)[C@H](CC(N)=O)NC(=O)[C@@H](CC(=O)O)NC(=O)[C@H](Cc3cnc[nH]3)NC(=O)[C@@H](Cc3ccccc3)NC(=O)[C@H]([C@@H](C)CC)NC(=O)[C@@H](CCCN)NC2=O)[C@@H](C)CC)CS1` [Bacitracin] ({Ileψ(thiazoline)Cys}-L[dE]IK[dOrn]I[dF]H[dD]N; lactam 4-C (inferred); N-terminus assumed): in the experiment on P. aeruginosa PAO1 (antibiotic + 2 μM D-11), the FICI turned out to be 1.063. Also, the FICI in the experiment with P. aeruginosa PAO1 (antibiotic + 4 μM D-11) amounted to 1.125. Besides, the “MICac: the MIC for the antibiotic” value with P. aeruginosa PAO1 (with 2 μM D-11) is reported as >128/>128 μM. Besides, the “MICac: the MIC for the antibiotic” value in the experiment with P. aeruginosa PAO1 (with 4 μM D-11) is given as >128/>128 μM. For the same compound, the “MICa: the MIC of antibiotics” value with P. aeruginosa PAO1 is >128/>128 μM. Moreover, in experiment [1] (antibiotic alone), the “Antibiotic sensibility (MIC) of clinical P. aeruginosa isolate AUMC-Pa-1” value was over 128 µM, the “Antibiotic sensibility (MIC) of clinical P. aeruginosa isolate AUMC-Pa-2” value was over 128 µM, the “Antibiotic sensibility (MIC) of clinical P. aeruginosa isolate AUMC-Pa-3” value was over 128 µM and the “Antibiotic sensibility (MIC) of clinical P. aeruginosa isolate AUMC-Pa-4” value is over 128 µM. Also, in experiment [1] (antibiotic alone), the “Antibiotic sensibility (MIC) of clinical P. aeruginosa isolate AUMC-Pa-5” value is over 128 µM, the “Antibiotic sensibility (MIC) of clinical P. aeruginosa isolate AUMC-Pa-6” value is over 128 µM, the “Antibiotic sensibility (MIC) of clinical P. aeruginosa isolate HM-214” value was over 128 µM and the “Antibiotic sensibility (MIC) of clinical P. aeruginosa isolate NR-31040” value is over 128 µM. For the same compound, the “Antibiotic sensibility (MIC) of clinical P. aeruginosa isolate NR-31041” value in experiment [1] (antibiotic alone) was over 128 µM.

`NC[C@H]1O[C@H](O[C@H]2[C@H](O)[C@@H](O[C@H]3O[C@H](CO)[C@@H](O)[C@H](N)[C@H]3O)[C@H](N)C[C@@H]2N)[C@H](O)[C@@H](O)[C@@H]1O` [Kanamycin]: in the experiment with P. aeruginosa PAO1 (antibiotic + 2 μM D-11), the FICI worked out at 2.063. The FICI in the experiment on P. aeruginosa PAO1 (antibiotic + 4 μM D-11) stood at 2.125. Besides, in the experiment with P. aeruginosa PAO1 (with 2 μM D-11), the “MICac: the MIC for the antibiotic” value amounted to 128 µM. In the experiment with P. aeruginosa PAO1 (with 4 μM D-11), the “MICac: the MIC for the antibiotic” value was determined as 128 µM. In the experiment on P. aeruginosa PAO1, the “MICa: the MIC of antibiotics” value is 64 µM. Besides, in experiment [1] (antibiotic alone), the “Antibiotic sensibility (MIC) of clinical P. aeruginosa isolate AUMC-Pa-1” value was 64 µM, the “Antibiotic sensibility (MIC) of clinical P. aeruginosa isolate AUMC-Pa-2” value was determined as 16 µM, the “Antibiotic sensibility (MIC) of clinical P. aeruginosa isolate AUMC-Pa-3” value was 32 µM and the “Antibiotic sensibility (MIC) of clinical P. aeruginosa isolate AUMC-Pa-4” value worked out at 32 µM. Moreover, in experiment [1] (antibiotic alone), the “Antibiotic sensibility (MIC) of clinical P. aeruginosa isolate AUMC-Pa-5” value is 32 µM, the “Antibiotic sensibility (MIC) of clinical P. aeruginosa isolate AUMC-Pa-6” value was 32 µM, the “Antibiotic sensibility (MIC) of clinical P. aeruginosa isolate HM-214” value is 128 µM and the “Antibiotic sensibility (MIC) of clinical P. aeruginosa isolate NR-31040” value amounted to 128 µM. For the same compound, the “Antibiotic sensibility (MIC) of clinical P. aeruginosa isolate NR-31041” value in experiment [1] (antibiotic alone) came to 128 µM.
